Results as given in US20080090805A1, “CB-1 MODULATING COMPOUNDS AND THEIR USE” (ACADIA PHARMACEUTICALS INC., priority 2005, published 2008).
Like-named read-outs stand apart in the source and are kept apart here.

Molecular target: CB1 (mutant) (Homo sapiens, UniProt P21554)
Assay: R-SAT functional receptor assay, CB1 (mutant, truncated after amino acid 417)
Type: cell-based
Details: R-SAT CB1; for IC50: receptor form (mutant or wild-type) not stated; for Emax / % Inhibition: receptor form not stated, relative to SR141716 (100%); for Emax: read-out: % Inhibition
[1] = Appendix A, read-out: pIC50 (converted)

Sequence of CB1 (mutant) (P21554 1-417, change not shown): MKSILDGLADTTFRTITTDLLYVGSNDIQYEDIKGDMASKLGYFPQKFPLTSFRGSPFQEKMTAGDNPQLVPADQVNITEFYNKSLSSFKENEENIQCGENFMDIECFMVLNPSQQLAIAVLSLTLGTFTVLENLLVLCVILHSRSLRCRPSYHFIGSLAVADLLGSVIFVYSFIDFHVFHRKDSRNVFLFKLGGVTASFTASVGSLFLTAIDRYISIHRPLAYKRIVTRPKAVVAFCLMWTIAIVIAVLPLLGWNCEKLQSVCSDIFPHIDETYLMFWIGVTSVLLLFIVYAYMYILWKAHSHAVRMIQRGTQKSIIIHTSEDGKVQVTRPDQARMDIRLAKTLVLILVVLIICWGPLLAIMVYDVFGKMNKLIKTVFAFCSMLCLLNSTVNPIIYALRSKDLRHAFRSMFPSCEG

Compound | IC50 [1] | Emax (Appendix A) | IC50 (pIC50, Appendix A) | % Inhibition (Appendix A)
O=C(NN1CCCCCC1)c1ccc2c(c1)N=C(c1ccc(Cl)s1)c1ccccc1S2 [drawing 797] | 10 nM | 105% | – | –
COc1ccc(C2=Nc3cc(C(=O)NNC(=O)c4ccccc4)ccc3Sc3ccccc32)cc1 [drawing 798] | – | 83% | – | –
CCCNC(=O)c1ccc2c(c1)N=C(c1ccc(Cl)cc1)c1ccccc1S2 [drawing 799] | 10 nM | 103% | – | –
Cc1ccc(CNC(=O)c2ccc3c(c2)N=C(c2ccc(Cl)c(Cl)c2)c2ccccc2S3)o1 [drawing 801] | 10 nM | 100% | – | –
Cc1ccc(CNC(=O)c2ccc3c(c2)N=C(c2ccsc2)c2ccccc2S3)o1 [drawing 803] | 10 nM | 94% | – | –
Cc1cccc(C2=Nc3cc(C(=O)NCc4ccc(C)o4)ccc3Sc3ccccc32)n1 [drawing 805] | 10 nM | 96% | – | –
CCONC(=O)c1ccc2c(c1)N=C(c1ccc(Cl)c(Cl)c1)c1ccccc1S2 [drawing 806] | – | 87% | – | –
CCCCNC(=O)c1ccc2c(c1)N=C(c1ccc(Br)cn1)c1ccccc1S2 [drawing 807] | 10 nM | 105% | – | –
Cc1cccc(C2=Nc3cc(C(=O)NCC(C)C)ccc3Sc3ccccc32)n1 [drawing 809] | 10 nM | 82% | – | –
C[C@@H]1CCC[C@H](C)N1NC(=O)c1ccc2c(c1)N=C(c1ccc(Cl)cc1F)c1ccccc1S2 [drawing 811] | 10 nM | 103% | – | –
NS(=O)(=O)c1ccc(CNC(=O)c2ccc3c(c2)N=C(c2ccc(F)cc2)c2ccccc2S3)cc1 [drawing 812] | – | 83% | – | –
CCCCNC(=O)c1ccc2c(c1)N=C(c1ccc(Cl)cn1)c1ccccc1S2 [drawing 813] | 10 nM | 106% | – | –
CCOC(=O)N1CCC(NC(=O)c2ccc3c(c2)N=C(C2CCCCC2)c2ccccc2S3)CC1 [drawing 814] | – | 95% | – | –
Cc1cccc(C2=Nc3cc(C(=O)NCCC(F)(F)F)ccc3Sc3ccccc32)n1 [drawing 815] | 12.6 nM | 93% | – | –
O=C(NNCC(F)(F)F)c1ccc2c(c1)N=C(c1ccc(Cl)cc1)c1ccccc1S2 [drawing 816] | – | 81% | – | –
O=C(NN1CCCCC1)c1ccc2c(c1)N=C(c1ccc(F)c(Cl)c1)c1ccccc1S2 [drawing 817] | 12.6 nM | 108% | – | –
COCCNC(=O)c1ccc2c(c1)N=C(c1ccc(Cl)s1)c1ccccc1S2 [drawing 819] | 12.6 nM | 103% | – | –
O=C(NC1CCC(F)(F)CC1)c1ccc2c(c1)N=C(c1ccc(F)cc1)c1ccccc1S2 [drawing 821] | 12.6 nM | 91% | – | –
O=C(NN1CCCCC1)c1ccc2c(c1)N=C(c1ccc(Cl)s1)c1ccccc1S2 [drawing 823] | – | 97% | 12.6 nM | –
O=C(NCCc1cccnc1)c1ccc2c(c1)N=C(c1ccc(Cl)c(Cl)c1)c1ccccc1S2 [drawing 825] | 12.6 nM | 104% | – | –
O=C(NCCC(F)(F)F)c1ccc2c(c1)N=C(c1ccc(F)cc1)c1ccccc1S2 [drawing 827] | 12.6 nM | 98% | – | –
CCCCNC(=O)c1ccc2c(c1)N=C(c1cccc(Cl)c1)c1cc(F)ccc1S2 [drawing 829] | 12.6 nM | 105% | – | –
O=C(NCc1cccc(Cl)c1)c1ccc2c(c1)N=C(c1ccc(F)cc1)c1ccccc1S2(=O)=O [drawing 833] | 12.6 nM | 108% | – | –

Compound | IC50 [1] | Emax (Appendix A) | IC50 (pIC50, Appendix A) | % Inhibition (Appendix A)
COc1ccc(C2=Nc3cc(C(=O)NCC(C)C)ccc3Sc3ccccc32)cc1 [drawing 835] | 12.6 nM | 118% | – | –
O=C(NCc1cccc(Cl)c1)c1ccc2c(c1)N=C(c1ccc(Cl)cc1)c1cc(F)ccc1S2 [drawing 837] | 12.6 nM | 110% | – | –
O=C(NCCc1ccccc1)c1ccc2c(c1)N=C(c1ccc(F)cc1)c1ccccc1S2 [drawing 839] | 12.6 nM | 103% | – | –
O=C(Cc1ccccc1)NNC(=O)c1ccc2c(c1)N=C(c1ccc(F)cc1)c1ccccc1S2 [drawing 840] | 158 nM | 98% | – | –
CCCNC(=O)c1ccc2c(c1)N=C(c1ccc(F)cc1)c1ccccc1S2 [drawing 841] | 12.6 nM | 95% | – | –
O=C(NC1CCCCC1)c1ccc2c(c1)N=C(c1cccc(Cl)c1)c1ccccc1S2 [drawing 843] | 12.6 nM | 99% | – | –
O=C(NC1CCCCC1)c1ccc2c(c1)N=C(c1ccc(Cl)cc1)c1ccccc1S2 [drawing 844] | 158 nM | – | – | 97%
O=C(NN1CCCCC1)c1ccc2c(c1)N=C(c1ccc(F)cc1)c1ccccc1S2 [drawing 845] | – | – | – | 97%
Clc1ccc(C2=Nc3cc(-c4ncc[nH]4)ccc3Sc3ccccc32)cc1 [drawing 846] | 158 nM | 109% | – | –
C[C@@H]1CCC[C@H](C)N1NC(=O)c1ccc2c(c1)N=C(c1cccc(Cl)c1)c1ccccc1S2 [drawing 847] | – | 100% | 12.6 nM | –
COCCNC(=O)c1ccc2c(c1)N=C(c1cccc(Cl)c1)c1ccccc1S2 [drawing 849] | 12.6 nM | 110% | – | –
CCOC(=O)c1ccc(C2=Nc3cc(C(=O)NCc4cccnc4)ccc3Sc3ccccc32)cc1 [drawing 850] | 158 nM | 73% | – | –
CCCNC(=O)c1ccc2c(c1)N=C(c1ccc(Cl)cc1F)c1ccccc1S2 [drawing 851] | 12.6 nM | 101% | – | –
COc1ccc(C2=Nc3cc(C(=O)NC4CCCC4)ccc3Sc3ccccc32)cc1 [drawing 852] | 158 nM | 103% | – | –
Cc1ccsc1C1=Nc2cc(C(=O)NCc3ccco3)ccc2Sc2ccccc21 [drawing 855] | 12.6 nM | 100% | – | –
O=C(NCCc1cccnc1)c1ccc2c(c1)N=C(c1cccc(Cl)c1)c1ccccc1S2 [drawing 857] | 12.6 nM | 100% | – | –
O=C(NCc1ccco1)c1ccc2c(c1)N=C(c1ccccc1F)c1ccccc1S2 [drawing 859] | – | 100% | 12.6 nM | –
O=C(NN1CCCCC1)c1ccc2c(c1)N=C(C1CCCCC1)c1ccccc1S2 [drawing 861] | – | – | – | 100%
O=C(NN1CCCCC1)c1ccc2c(c1)N=C(c1ccc(Cl)cc1)c1ccccc1S2 [drawing 863] | – | – | – | 103%
CCN(CCNC(=O)c1ccc2c(c1)N=C(C1CCCCC1)c1ccccc1S2)c1ccccc1 [drawing 865] | 15.8 nM | 105% | – | –
O=C(NN1CCCCCC1)c1ccc2c(c1)N=C(c1ccc(Cl)cc1F)c1ccccc1S2 [drawing 867] | 15.8 nM | 102% | – | –
Cc1cccc(C2=Nc3cc(C(=O)NC4CCC(F)(F)CC4)ccc3Sc3ccccc32)n1 [drawing 869] | 15.8 nM | 74% | – | –
O=C(NCCCC(F)(F)F)c1ccc2c(c1)N=C(c1ccccn1)c1ccccc1S2 [drawing 871] | 15.8 nM | 117% | – | –

Compound | IC50 [1] | Emax (Appendix A) | IC50 (pIC50, Appendix A) | % Inhibition (Appendix A)
Cc1cnc(-c2ccc3c(c2)N=C(c2ccc(Cl)cc2)c2ccccc2S3)[nH]1 [drawing 872] | 200 nM | 88% | – | –
CCCCNC(=O)c1ccc2c(c1)N=C(c1ccc(Cl)s1)c1cc(F)ccc1S2 [drawing 873] | 15.8 nM | 99% | – | –
CCOC(=O)c1ccc(C2=Nc3cc(C(=O)NCc4ccccn4)ccc3Sc3ccccc32)cc1 [drawing 874] | 200 nM | 100% | – | –
CCCCNS(=O)(=O)c1ccc2c(c1)N=C(c1ccc(Cl)cc1)c1ccccc1S2 [drawing 875] | 15.8 nM | 106% | – | –
O=C(NN1CCCCCC1)c1ccc2c(c1)N=C(c1ccc(Cl)cc1Cl)c1ccccc1S2 [drawing 876] | 200 nM | 82% | – | –
O=C(NCc1ccccc1)c1ccc2c(c1)N=C(C1CCCCC1)c1ccccc1S2 [drawing 877] | 15.8 nM | 97% | – | –
CC(CNC(=O)c1ccc2c(c1)N=C(c1cccc(Cl)c1)c1cc(F)ccc1S2)c1ccccc1 (centres unmarked) [drawing 879] | 15.8 nM | 113% | – | –
CCCCNC(=O)c1ccc2c(c1)N=C(c1sccc1C)c1ccccc1S2 [drawing 881] | – | 91% | 15.8 nM | –
O=C(NN1CCCCCC1)c1ccc2c(c1)N=C(c1cccc(F)c1)c1ccccc1S2 [drawing 883] | – | – | 15.8 nM | 96%
CCCC1=Nc2cc(C(=O)NCCN(CC)c3ccccc3)ccc2Sc2ccccc21 [drawing 885] | 15.8 nM | 106% | – | –
CCCCNC(=O)c1ccc2c(c1)N=C(c1ccc(OC)cc1)c1ccccc1S2 [drawing 887] | 15.8 nM | 112% | – | –
O=C(NCCc1ccc(Cl)cc1)c1ccc2c(c1)N=C(C1CCCCC1)c1ccccc1S2 [drawing 889] | 15.8 nM | 104% | – | –
O=C(NCc1ccccc1Br)c1ccc2c(c1)N=C(N1CCCCC1)c1ccccc1S2 [drawing 890] | 200 nM | 62% | – | –
O=C(NCc1ccccn1)c1ccc2c(c1)N=C(c1cccc(Br)c1)c1ccccc1S2 [drawing 891] | 15.8 nM | 85% | – | –
CCCNC(=O)c1ccc2c(c1)N=C(c1cccc(F)c1)c1ccccc1S2 [drawing 893] | 15.8 nM | 109% | – | –
O=C(NCc1cccnc1)c1ccc2c(c1)N=C(c1cccc(Br)c1)c1ccccc1S2 [drawing 895] | 15.8 nM | 105% | – | –
Cc1ccc(N2CCN(C(=O)c3ccc4c(c3)N=C(C3CCCCC3)c3ccccc3S4)CC2)c(C)c1 [drawing 896] | 200 nM | 103% | – | –
O=C(NN1CCCCC1)c1ccc2c(c1)N=C(c1ccccc1)c1ccccc1S2 [drawing 897] | 15.8 nM | 115% | – | –
O=C(NCc1cccc(Cl)c1)c1ccc2c(c1)N=C(c1ccccc1)c1ccccc1S2 [drawing 899] | 15.8 nM | 107% | – | –
O=C(NCc1ccc(Cl)cc1Cl)c1ccc2c(c1)N=C(c1ccc(Cl)cc1)c1ccccc1S2 [drawing 901] | 15.8 nM | 101% | – | –
O=C(NCCCc1ccccc1)c1ccc2c(c1)N=C(N1CCCCC1)c1ccccc1S2 [drawing 903] | 15.8 nM | 104% | – | –
O=C(NCCc1ccccn1)c1ccc2c(c1)N=C(c1cccc(Cl)c1)c1ccccc1S2 [drawing 905] | 15.8 nM | 103% | – | –
